Consider 4 compounds from publication PMC7027461 (Clinical Pharmacology in Drug Development, 2020).

On the set-up of series [1]: method as in PMID 19738123. The conditions noted are these: uncoated tablet formulation; cited from earlier work.
On the set-up of series [2]: method as in ref 29 = [29]; 29 U.S. Food and Drug Administration . Application Number: 211349Orig1s000; Multi‐Discipline Review. https://www.accessdata.fda.gov/drugsatfda_docs/nda/2018/211349Orig1s000MultidisciplineR.pdf . Publi. The conditions noted are these: single 40‐mg tablet; cited from earlier work.
On the set-up of series [3]: method as in ref 23 = [23]; 23 U.S. Food and Drug Administration . Application Number: 207997Orig1s000; 207997Orig2s000. Clinical Pharmacology and Biopharmaceutics Review(s). Available at: https://www.accessdata.fda.gov/drugsatf. The conditions noted are these: single 50‐mg dose, cited from earlier work.
On the set-up of series [4]: method as in data on file, Daiichi Sankyo, Inc. The conditions noted are these: ref data on file, Daiichi Sankyo, Inc; cited from earlier work.
In series [5] the test system is cytochrome P450 3A. As to conditions: cited from earlier work.
On the set-up of series [6]: method as in data on file, Daiichi Sankyo, Inc. The conditions noted are these: subjects with AML; ref data on file, Daiichi Sankyo, Inc; cited from earlier work.
A short description of series [7]: Safety assessments (AEs, ECG/QTcF, vital signs, laboratory tests) in the food-effect study. The format is in vivo, human. As for the experimental part: All randomized subjects who received quizartinib were included in the safety analysis population. Safety assessments included physical examinations, vital signs, 12‐lead ECGs, adverse event (AE) evaluations, and clinical laboratory tests. Hematology, chemistry, serology, and urinalysis tests were performed by a local laboratory. AEs and laboratory tests were graded and summarized based on National Cancer Institute Common Terminology Criteria for Adverse Events version 4.03 and assessed for severity, relation to study drugs, and clinical significance.

For series [8] the following is noted: prior knowledge used for the study design and sampling duration; no reference given; cited from earlier work.
For series [9] the following is noted: BCS classification; no reference given; cited from earlier work.

Values joined by “and” are separate entries in the source; they are usually repeats but may differ in a detail not shown here. Identical values can stand only once. “Also recorded” adds a separate entry of the source. Like-named read-outs stand apart in the source and are kept apart here.

On to `CC1(COc2ccc3c(c2)ncn3-c2ccc3cccc(N4CCC(N)CC4)c3n2)COC1` [crenolanib], for which, in series [1], the “effect of food on interpatient variability of Cmax and AUCinf” value was “increased”; the “effect of food on terminal half‐life” value is “no effects”; the “effect of food on tmax” value is “delays”.

On to `CCc1nc(C(N)=O)c(Nc2ccc(N3CCC(N4CCN(C)CC4)CC3)c(OC)c2)nc1NC1CCOCC1` [gilteritinib], for which, in series [2], the “decrease in AUC with a high‐fat meal vs the fasted state” value was less than 10%, the “decrease in Cmax with a high‐fat meal vs the fasted state” value was 26% and the “delay in median tmax with a high‐fat meal” value is 2 h.

For `CO[C@@H]1[C@H](N(C)C(=O)c2ccccc2)C[C@H]2O[C@]1(C)n1c3ccccc3c3c4c(c5c6ccccc6n2c5c31)C(=O)NC4` [midostaurin], the “increase in exposure with food” value in series [3] (high‐fat meal (900–1000 calories, 50% fat content)) is recorded as 1.6 fold; in series [3] (standard meal (450 calories, 25% fat content)), 1.2 fold.

As to `CC(C)(C)c1cc(NC(=O)Nc2ccc(-c3cn4c(n3)sc3cc(OCCN5CCOCC5)ccc34)cc2)no1.Cl.Cl` [quizartinib, N‐(5‐tert‐butyl‐isoxazol‐3‐yl)‐N′‐{4‐[7‐(2‐morpholin‐4‐yl‐ethoxy)imidazo[2,1‐b][1,3]benzothiazol‐2‐yl]phenyl}urea dihydrochloride], in [4], the Plasma protein binding is more than 99%. The “cytochrome P450 3A substrate status” value in [5] is “substrate”. In addition, the “effective half‐life” value in [6] is 73 h. Moreover, the tolerability result in series [7] (30‐mg single dose, fed and fasted healthy subjects) was “safe and well tolerated”. In series [7] (all subjects (N = 64)), the “subjects with maximum QTcF ≤450 milliseconds” value was 64 (100%) n (%) and the “subjects with maximum change from baseline QTcF ≤30 milliseconds” value was 98.4%. For the same compound, in series [7] (fasted (n = 34)), the “Number of TEAEs” value is reported as 16; the “Number of treatment‐related AEs” value stood at 6; the “Subjects with a treatment‐related AE, n (%)” value is 4 (11.8%) n (%) and 4 (11.8) n (%); the “Subjects with any TEAE by maximum severity: Mild, n (%)” value (from here on “Subjects with any TEAE … Mild, n (%)”) was 7 (20.6) n (%). In addition, in [7] (fasted (n = 34)), the “Subjects with any TEAE by maximum severity: Moderate, n (%)” value (shortened to “Subjects with any TEAE … Moderate, n (%)”) is 1 (2.9) n (%) and the “Subjects with any TEAE by maximum severity: Severe, n (%)” value (“Subjects with any TEAE … Severe, n (%)” below) is given as 1 (2.9) n (%). In addition, in [7] (fasted (n = 34), single 30-mg dose), the “Subjects with a TEAE, n (%)” value was 9 (26.5%) n (%) and 9 (26.5) n (%). In series [7] (fed (n = 30)), the “Number of TEAEs” value worked out at 7; the “Number of treatment‐related AEs” value was found to be 4; the “Subjects with a treatment‐related AE, n (%)” value was 2 (6.7%) n (%) and 2 (6.7) n (%); the “Subjects with any TEAE … Mild, n (%)” value is listed as 5 (16.7) n (%). In series [7] (fed (n = 30)), the “Subjects with any TEAE … Moderate, n (%)” value was 0 n (%) and the “Subjects with any TEAE … Severe, n (%)” value is on record as 0 n (%). Besides, the “Subjects with a TEAE, n (%)” value in [7] (fed (n = 30), single 30-mg dose) was 5 (16.7%) n (%) and 5 (16.7) n (%). In addition, in series [7] (overall (N = 64)), the “Number of TEAEs” value was 23; the “Number of treatment‐related AEs” value is on record as 10; the “Subjects with a treatment‐related AE, n (%)” value is 6 (9.4%) n (%) and 6 (9.4) n (%); the “Subjects with any TEAE … Mild, n (%)” value was 12 (18.8) n (%). Moreover, in series [7] (overall (N = 64)), the “Subjects with any TEAE … Moderate, n (%)” value was 1 (1.6) n (%) and the “Subjects with any TEAE … Severe, n (%)” value was 1 (1.6) n (%). In addition, the “Subjects with a TEAE, n (%)” value in series [7] (overall (N = 64), single 30-mg dose) was 14 (21.9) n (%). Also, the “serious AEs or discontinuations due to AEs” value in series [7] (single 30-mg dose, fed and fasted) is “no discontinuations due to adverse events occurred; also recorded: no serious AEs or discontinuations due to AEs”. Moreover, the “subjects with maximum change from baseline QTcF >30 milliseconds and ≤60 milliseconds” value in [7] (subject in the fasted group, percentage of N = 64) was 1 (1.6%) n (%). Also, in [8], the “terminal elimination half‐life (t1/2)” value is listed as “approximately 100 hours”. Besides, in series [9], the permeability entry is “low” and the solubility entry was “low”.
